Two molecules from PMC5491903, “The Selective Phosphoinoside-3-Kinase p110δ Inhibitor IPI-3063 Potently Suppresses B Cell Survival, Proliferation, and Differentiation” (Frontiers in Immunology, 2017) can be followed below.

A value given as a limit tells only on which side of the number the result lay.

Common to all, as to format: cell-based
Test [1] relates to mouse B cells. The experiment in a line: mouse B cell survival (B220+7AAD- viability, 48 h). The protocol: To assess survival, purified mouse B cells were incubated for 48 h in either B-cell activating factor (BAFF) or interleukin-4 (IL-4) with various concentrations of IPI-3063 and IPI-443. […] The selective PI3K inhibitor IPI-3063 was very potent, achieving a significant decrease in B cell survival when present at 10 nM.
Total splenocytes were pretreated with inhibitors as indicated, then cultured with 10 ng/mL IL-4 (A) or 60 ng/mL of BAFF (B) for 48 h. Concentrations used were 1 nM, 10 nM, 100 nM, 1 µM for IPI-443 and 1, 10, 30, 100 nM for IPI-3063. AS252424 concentrations were 100 nM, 300 nM, and 1 µM, and GDC-0941 was at 500 nM. % viability was calculated by measuring % of B220^+7AAD^− cells. Samples were collected by time. (*P < 0.05, **P < 0.001, ***P < 0.0001 one-way ANOVA with Newman–Keuls multiple comparison test).

Test [2] relates to mouse B cells. The test is described as follows: mouse B cell proliferation (CFSE). The following applies: αIgM + IL-4, 72 h. As for the experimental part:
Next, we evaluated the effects of PI3K inhibitors on B cell proliferation. We stimulated CFSE-stained cells with αIgM + IL-4 or with LPS for 72 h, or with αCD40 + IL-4 or LPS + IL-4 for 96 h. Cells were treated with vehicle or GDC-0941, IPI-3063, IPI-443, or AS-252424 at various concentrations. […] IPI-443 caused a dose-dependent decrease in proliferation, whereas AS-252424 had no effect. […] In B cells stimulated with LPS + IL-4, the inhibitors had similar trends, but with greater variability (Figure 3D). […] Overall, these experiments establish that the selective p110δ inhibitor IPI-3063 is a very potent inhibitor of B cell survival and proliferation in vitro. In addition, selective p110γ inhibition alone had no effect on B cell survival or proliferation.
Total splenocytes (A,B) or purified B cells (C–E) were pretreated with inhibitors for 30 min, then stimulated with (A,B) αIgM + IL-4 for 72 h, (C–E) LPS + IL-4 for 96 h, LPS for 72 h, or αCD40 + IL-4 for 96 h. […] The experiments in panel (C) include low concentrations of IPI-3063 (0.01 and 0.1 nM) Total numbers were determined by the number of B220^+7AAD^−CFSE^lo cells. […]
Before cell surface staining, cells were incubated with TruStain fcX in FACS buffer (0.5% BSA + 0.02% NaN3 in 1× HBSS) to block Fc receptors for 10 min on ice. […] Flow cytometric data were analyzed using FlowJo software (TreeStar). […]

The next test concerns human B cells. The test is described as follows: human B cell proliferation (CFSE). The following applies: CD40L + anti-human IgM/IgG + hIL-2 + hIL-21, 120 h. The protocol:
We also tested the effects of these inhibitors on human B cell proliferation stimulated with human CD40L + anti-human IgM/IgG + hIL-2 + hIL-21. We stimulated CFSE-stained human B cells for 120 h in the presence of GDC-0941, IPI-3063, IPI-443, or AS-252424 at various concentrations. […] IPI-443 caused a dose-dependent decrease in proliferation, whereas AS-252424 had no effect.
(A–C) Purified human B cells were pretreated with inhibitors for 30 min, then stimulated with human CD40L + anti-human IgM/IgG + human IL-2 + human IL-21 for 120 h. Concentrations used were 1 nM, 10 nM, 100 nM, and 1 µM for IPI-443, and 0.1, 1, 10, and 100 nM for IPI-3063. AS252424 concentrations were 100 nM, 300 nM, and 1 µM, and GDC-0941 was at 500 nM. Total numbers and percent divided were determined by the number of CD19^+7AAD^−CFSE^lo cells. Samples were collected by time (*P < 0.05, **P < 0.001, ***P < 0.0001 one-way ANOVA with Newman–Keuls multiple comparison test).
Peripheral blood from normal volunteers was obtained through an Institutional Review Board-approved protocol. Peripheral blood mononuclear cells (PBMCs) were first purified from blood by density gradient centrifugation using Ficoll-Paque. […] B-cell purity was increased from 4% to >70% as measured by FACS analysis (FACSCalibur and CellQuest software; BD Biosciences) using anti-CD19 PE conjugated antibody (eBioscience). […]

For `O=C1NC(=O)/C(=C/c2ccc(-c3ccc(F)cc3O)o2)S1` [AS-252424, reference compound], in the test with mouse B cells [1] (BAFF or IL-4, 48 h), the effect on survival result is “no significant effect”. Further, the effect on proliferation entry in the test on mouse B cells [2] and in the test on human B cells was “no effect” throughout.

For the molecule `CC(C)n1c([C@H](C)Nc2ncnc(N)c2C#N)cc2cccc(-c3ccc(=O)n(C)c3)c2c1=O` [IPI-3063], the “concentration with significant decrease in B cell survival” value in the test with mouse B cells [1] (BAFF, 48 h) was 10 nM. The “concentration that blocks/decreases proliferation” value in the test with mouse B cells [2] is 1 nM. Further, the “concentration that significantly reduces proliferation” value in the test with human B cells is recorded as not below 1 nM.
